Experimental data taken from patent publication US20170071203A1, “Active compound combinations having insecticidal properties” (BAYER CROPSCIENCE AKTIENGESELLSCHAFT, priority 2014, published 2017).

Tests used:
Format in all cases: in vivo
[1] = test system: green peach aphid (Myzus persicae); assay: Myzus persicae - spray test
Text: (§1) The expected activity for a given combination of two active compounds can be calculated according to S. R. Colby, Weeds 15 (1967), 20-22 as follows:
(§2) • X is the kill rate, expressed in % of the untreated control, when active compound A is applied at an application rate of m g/ha or at a concentration of m ppm, • Y is the kill rate, expressed in % of the untreated control, when active compound B is applied at an application rate of n g/ha or at a concentration of n ppm and • E is the kill rate, expressed in % of the untreated control, when active compounds A and B is applied at application rates of m and n g/ha or at a concentration of m and n ppm, then
(§3) If the observed insecticidal efficacy of the combination is higher than the one calculated as “E”, then the combination of the two compounds is more than additive, i.e., there is a synergistic effect.
(§4) To produce a suitable preparation of active compound, 1 part by weight of active compound is mixed with the stated amount of solvents and is diluted with water, containing an emulsifier concentration of 1000 ppm, to the desired concentration. To produce a suitable preparation of a spore suspension the spores are diluted with emulsifier containing water to the desired concentration. Further test concentrations are prepared by dilution with emulsifier containing water.
Chinese cabbage (Brassica pekinensis) leaf disks infected with all instars of the green peach aphid (Myzus persicae), are sprayed with a preparation of the active ingredient of the desired concentration.
After the specified period of time, mortality in % is determined 100% means all aphids have been killed; 0% means none of the aphids have been killed. The mortality values determined thus are recalculated using the Colby-formula (see sheet 1).

[2] = test system: two spotted spidermite (Tetranychus urticae); assay: Tetranychus urticae - spray test, OP-resistant
Text: as §1, §2, §3, §4
French bean (Phaseolus vulgaris) leaf disks which are heavily infested with all stages of the two spotted spidermite (Tetranychus urticae), are sprayed with a preparation of the active ingredient of the desired concentration.
After the specified period of time, mortality in % is determined. 100% means all spider mites have been killed and 0% means none of the spider mites have been killed. The mortality values determined thus are recalculated using the Colby-formula (see sheet 1).

[3] = test system: mustard beetle larvae (Phaedon cochleariae); assay: Phaedon cochleariae - spray test; settings: 20 g ai/ha
Text: as §1, §2, §3
To produce a suitable preparation of active compound, 1 part by weight of active compound is mixed with the stated amount of solvents and is diluted with water, containing an emulsifier concentration of 1000 ppm, to the desired concentration. […]
After the specified period of time, mortality in % is determined 100% means all beetle larvae have been killed and 0% means none of the beetle larvae have been killed. The mortality values determined thus are recalculated using the Colby-formula (see sheet 1).

[4] = test system: larvae of the cotton boll worm (Heliothis armigera); assay: Heliothis armigera - spray test
Text: as §1, §2, §3
To produce a suitable preparation of active compound, 1 part by weight of active compound is mixed with the stated amount of solvent and is diluted with water, containing an emulsifier concentration of 1000 ppm, to the desired concentration. Further test concentrations are prepared by dilution with emulsifier containing water Ammonium salt and/or penetration enhancer in a dosage of 1000 ppm are added to the desired concentration if necessary.
Cotton plants (Gossypium hirsutum) are treated by being sprayed with the preparation of the active compound of the desired concentration and are infested with larvae of the cotton boll worm (Heliothis armigera).
After the specified period of time, the mortality in % is determined 100% means all caterpillars have been killed; 0% means none of the caterpillars have been killed. The mortality values determined thus are recalculated using the Colby-formula (see sheet 1).

CN/C(=N\[N+](=O)[O-])NCc1cnc(Cl)s1 [Clothianidin]
Efficacy in % after 6d ([1]; 0.15 g ai/ha): 0%
Efficacy in % after 2d ([2]; 4 g ai/ha): 0%

C/C(=N\C#N)N(C)Cc1ccc(Cl)nc1 [Acetamiprid]
Efficacy in % after 6d ([1]; 1.6 g ai/ha): 70%
Efficacy in % after 6d ([2]; 0.8 g ai/ha): 0%

N#C/N=C1\SCCN1Cc1ccc(Cl)nc1 [Thiacloprid]
Efficacy in % after 1d ([1]; 0.8 g ai/ha, after 1 d): 0%

CN/C(=N/CC1CCOC1)N[N+](=O)[O-] (stereo not drawn) [Dinotefuran]
Efficacy in % after 6d ([1]; 4.8 g ai/ha): 0%
Efficacy in % after 6d ([1]; 9.6 g ai/ha): 70%
Efficacy in % after 6d ([2]; 4 g ai/ha): 0%
Efficacy in % after 2d ([2]; 20 g ai/ha): 0%

CS(=O)(=O)NC(=O)c1cccc(-c2cnc(-c3cccnc3)s2)n1 [Thiazolamid (II-11)]
Efficacy in % after 2d ([2]; 20 g ai/ha): 0%

CN1COCN(Cc2cnc(Cl)s2)/C1=N\[N+](=O)[O-] [Thiamethoxam]
Efficacy in % after 2d ([3]; after 2 d, Chinese cabbage leaf disks): 0%
Efficacy in % after 6d ([3]; after 6 d): 0%

O=[N+]([O-])NC1=NCCN1Cc1ccc(Cl)nc1 [Imidacloprid]
Efficacy in % after 2d ([2]; 0.8 g ai/ha): 0%
Efficacy in % after 2d ([2]; 4 g ai/ha): 0%
Efficacy in % after 1d ([4]; 80 ppm): 0%
Efficacy in % after 1d ([4]; 160 ppm): 0%
Efficacy in % after 1d ([4]; 320 ppm): 30%
Efficacy in % after 2d ([4]; 320 ppm, after 2 d): 70%
